Experimental data published in article PMC6270012, “Inhibitory Evaluation of Sulfonamide Chalcones on β-Secretase and Acylcholinesterase” (Molecules, 2012).
“Also recorded” adds a separate entry of the source. Where two headings read alike, the source gives them in different places.

Assays:
Assay type in all cases: biochemical
BACE1 [1] = target: T1, BACE1 (Homo sapiens, UniProt P56817); experiment: BACE1 FRET peptide cleavage assay; conditions: for Inhibition type: Lineweaver-Burk and Dixon plots
T1 construct: purchased RD System, Inc. (WI, USA)
T1 sequence (P56817 46-501): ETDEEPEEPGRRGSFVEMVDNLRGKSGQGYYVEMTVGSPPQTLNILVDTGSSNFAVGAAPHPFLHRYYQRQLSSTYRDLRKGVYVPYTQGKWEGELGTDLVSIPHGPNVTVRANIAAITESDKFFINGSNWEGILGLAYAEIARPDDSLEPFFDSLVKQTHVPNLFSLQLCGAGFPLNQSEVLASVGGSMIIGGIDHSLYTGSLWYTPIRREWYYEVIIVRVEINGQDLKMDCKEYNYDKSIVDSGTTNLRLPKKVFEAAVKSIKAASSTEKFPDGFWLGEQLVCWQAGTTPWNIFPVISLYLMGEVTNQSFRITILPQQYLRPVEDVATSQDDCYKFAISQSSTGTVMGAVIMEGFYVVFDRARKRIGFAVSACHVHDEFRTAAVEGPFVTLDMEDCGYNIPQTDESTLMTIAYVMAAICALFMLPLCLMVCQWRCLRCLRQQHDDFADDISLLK
Procedure: In this assay, BACE1-catalyzed proteolysis of a synthetic oligopeptide substituted with a fluorescent dye and a quencher leads to an increase in fluorescence by breaking the tether between the dye and the quencher. […] The assay was carried out according to the supplied manual with small modifications.
The assay was carried out according to the supplied manual with modifications. Briefly, a mixture of 10 μL of assay buffer (50 mM sodium acetate, pH 4.5), 10 μL of BACE1 (1.0 U/mL), 10 μL of the substrate (750 nM Rh-[…]-Quencher in 50 mM sodium acetate, pH 4.5), and 10 μL of sample dissolved in 50 mM ammonium bicarbonate buffer (pH 7.8) was incubated for 60 min at room temperature in the dark. The mixture was irradiated at 545 nm and the emission intensity at 590 nm was recorded. The inhibition ratio was obtained by the following equation: Inhibition (%) = [1 − {(S−S0)/(C−C0)}] × 100 where C was the fluorescence of the control (enzyme, buffer, and substrate) after 60 min of incubation, C0 was the fluorescence of control at zero time, S was the fluorescence of the tested samples (enzyme, sample solution, and substrate) after incubation, and S0 was the fluorescence of the tested samples at zero time. To allow for the quenching effect of the samples, the sample solution was added to the reaction mixture C, and any reduction in fluorescence by the sample was then investigated. All data are the mean of three experiments.

human erythrocyte AChE = target: T2, human erythrocyte AChE (Homo sapiens, UniProt P22303); experiment: Cholinesterase inhibitory activity (Ellman), AChE; conditions: for IC50: read-out: IC50 erythrocytes AChE; for Ki: read-out: Ki (inhibition constant) AChE
T2 construct: 2 μL of human erythrocyte AChE (0.25 U/mL); from tissue; host or cells: human erythrocytes
T2 sequence (P22303 other isoform, or with tags, fused parts or gaps): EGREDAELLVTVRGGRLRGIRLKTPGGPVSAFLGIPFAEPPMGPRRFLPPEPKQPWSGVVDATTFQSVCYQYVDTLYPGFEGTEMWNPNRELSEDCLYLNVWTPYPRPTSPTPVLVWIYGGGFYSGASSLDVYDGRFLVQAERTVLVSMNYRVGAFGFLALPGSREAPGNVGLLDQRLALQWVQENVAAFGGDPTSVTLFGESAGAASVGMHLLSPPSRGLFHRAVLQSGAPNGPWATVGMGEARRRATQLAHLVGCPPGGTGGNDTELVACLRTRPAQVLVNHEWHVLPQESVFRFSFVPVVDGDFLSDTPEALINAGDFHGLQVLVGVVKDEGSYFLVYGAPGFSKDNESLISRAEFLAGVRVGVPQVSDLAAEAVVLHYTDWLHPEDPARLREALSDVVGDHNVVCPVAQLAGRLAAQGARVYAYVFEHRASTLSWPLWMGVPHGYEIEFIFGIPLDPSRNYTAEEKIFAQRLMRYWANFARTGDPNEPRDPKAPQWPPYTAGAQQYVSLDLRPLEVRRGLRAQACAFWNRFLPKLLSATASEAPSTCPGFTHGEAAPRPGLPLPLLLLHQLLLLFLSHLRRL
Procedure: (§1) Cholinesterase was assayed according to standard procedures by following the hydrolysis of acetylthiocholine iodide (AtCh) or butyrylthiocholine iodide (BtCh) by monitoring formation of 5-thio-2-nitrobenzoate from 5-5'-dithiobis(2-nitrobenzoic acid) spectrometrically at 412 nm. The reaction mixture contained 100 mM sodium phosphate buffer (pH 8.0), 20 μL of test sample solution and either 2 μL of human erythrocyte AChE (0.25 U/mL) or 2 μL of equine serum BChE (0.05 U/mL) solution, which were mixed and incubated for 10 min at room temperature. Assays were then initiated with the addition of 30 μL 5-5'-dithiobis(2-nitrobenzoic acid) (3.3 mM) and, respectively, 20 μL of AtCh (1 mM), and 7 μL of BtCh (1 mM). All assays were performed in triplicate. […] Kinetic parameters were determined using the Lineweaver-Burk double-reciprocal-plot method at increasing concentration of substrates and inhibitors.

equine serum BChE = target: T3, equine serum BChE (Equus caballus, UniProt P81908); experiment: Cholinesterase inhibitory activity (Ellman), BChE; conditions: for Ki: read-out: Ki (inhibition constant) BChE
T3 construct: 2 μL of equine serum BChE (0.05 U/mL) solution; from tissue; host or cells: equine serum
T3 sequence (P81908 whole entry): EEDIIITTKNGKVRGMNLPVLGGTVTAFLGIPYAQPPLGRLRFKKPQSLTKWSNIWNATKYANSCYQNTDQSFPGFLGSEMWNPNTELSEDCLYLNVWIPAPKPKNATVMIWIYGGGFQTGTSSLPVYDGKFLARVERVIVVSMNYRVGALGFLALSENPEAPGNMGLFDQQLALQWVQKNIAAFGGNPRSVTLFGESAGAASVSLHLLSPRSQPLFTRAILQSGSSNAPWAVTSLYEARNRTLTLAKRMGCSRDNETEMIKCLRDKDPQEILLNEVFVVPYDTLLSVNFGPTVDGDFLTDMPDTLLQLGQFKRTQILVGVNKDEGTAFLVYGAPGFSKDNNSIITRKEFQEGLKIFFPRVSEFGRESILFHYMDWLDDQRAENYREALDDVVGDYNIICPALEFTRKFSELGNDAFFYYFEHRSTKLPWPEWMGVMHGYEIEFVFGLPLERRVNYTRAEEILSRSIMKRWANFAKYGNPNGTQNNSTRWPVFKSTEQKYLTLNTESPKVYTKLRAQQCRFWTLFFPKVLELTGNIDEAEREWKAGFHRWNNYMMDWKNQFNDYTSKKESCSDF
Procedure: as §1

BACE1 [2] = target: T1, BACE1; experiment: Slow and time-dependent inhibitory activity on BACE1 (progress curves); conditions: preincubation 0-60 min, progress curves 3,600 s
Procedure: To further investigate the inhibition mechanism, time dependence of BACE1inhibition by compound 5a was subsequently probed. The enzyme was preincubated with […] (between 0 and 60 min) and the residual enzyme activity was measured by calculating the initial velocity (Vi) of the hydrolysis (Figure 3B). Progress curves were continued to be run up for 3,600 s.
Slow and time-dependent assays and progress curves were carried out using 1 U/mL unit BACE1, and 10 μL substrate in 50 mM ammonium bicarbonate pH 7.8 at 37 °C. Enzyme activities were measured continuously for 3,600 s spectrophotometrically. To determine the kinetic parameters associated with time dependent inhibition of BACE1, progress curves for 3,600 s were obtained at one inhibitor concentration using fixed substrate concentrations. The data were analyzed using the nonlinear regression program [Sigma Plot (SPCC Inc., Chicago, IL, USA)].

[3] = BACE1, Dixon plot, read-out: Ki (inhibition constant)
[4] = BACE1 activity, mean of three experiments ± SD

| Compound | Ki (BACE1 [1]; [3]) [µM] | IC50 (BACE1 [1]; [4]) [µM] | IC50 (human erythrocyte AChE) [µM] | Ki (human erythrocyte AChE) [µM] | IC50 (equine serum BChE) [µM] | Ki (equine serum BChE) [µM] | other results |
| --- | --- | --- | --- | --- | --- | --- | --- |
| Nc1ccc(C(=O)/C=C/c2ccc(O)cc2)cc1 [Compound 1, 4′-Amino-4-hydroxychalcone] | 43.8 | 48.2 ± 1.2 | – | – | – | – | – |
| Nc1ccc(C(=O)/C=C/c2ccc(O)c(O)c2)cc1 [Compound 2, 4′-Amino-3,4-dihydroxychalcone] | 10.5 | 17.7 ± 0.8 | – | – | – | – | – |
| CC(=O)Nc1ccc(C(=O)/C=C/c2ccc(O)cc2)cc1 [Compound 3, 4′-Acetamido-4-hydroxychalcone] | – | > 200 | – | – | – | – | BACE1 inhibition (BACE1 [1]; at concentrations as high as 200 μM): inactive |
| Cc1ccc(S(=O)(=O)Nc2ccc(C(=O)/C=C/c3ccc(O)cc3)cc2)cc1 [Compound 4a, 4'-(4-Toluenesulfonamide)-4-hydroxychalcone] | 0.56 | 1.44 ± 0.2 | 56.1 | 40.4 | 47.4 | 25.3 | Inhibition type (BACE1 [1]; BACE1): mixed type |
| Cc1ccc(S(=O)(=O)Nc2ccc(C(=O)/C=C/c3ccccc3)cc2)cc1 [Compound 4b, 4′-(4-Toluenesulfonamido)-chalcone] | – | 169 ± 2.4 | – | – | – | – | – |
| O=C(/C=C/c1ccc(O)cc1)c1ccc(NS(=O)(=O)c2ccccc2)cc1 [Compound 4c, 4′-(Benzenesulfonamide)-4-hydroxychalcone] | 5.83 | 6.28 ± 0.7 | 83.3 | 80.3 | 75 | 72.2 | – |
| O=C(/C=C/c1ccc(O)cc1)c1ccc(NS(=O)(=O)c2ccc(O)cc2)cc1 [Compound 4d, 4′-(4-Hydroxybenzenesulfonamide)-4-hydroxychalcone] | 1.49 | 2.88 ± 0.5 | – | – | – | – | – |
| COc1ccc(S(=O)(=O)Nc2ccc(C(=O)/C=C/c3ccc(O)cc3)cc2)cc1 [Compound 4e, 4′-(4-Methoxybenzenesulfonamido)-4-hydroxychalcone] | 75.2 | 79.3 ± 2.3 | – | – | – | – | – |
| Nc1ccc(S(=O)(=O)Nc2ccc(C(=O)/C=C/c3ccc(O)cc3)cc2)cc1 [Compound 4f, 4′-(4-Aminobenzenesulfonamide)-4-hydroxychalcone] | 4.19 | 5.58 ± 1.4 | 95.8 | 61.5 | 34.3 | 19 | – |
| O=C(/C=C/c1ccc(O)cc1)c1ccc(NS(=O)(=O)c2ccc([N+](=O)[O-])cc2)cc1 [Compound 4g, 4′-(4-Nitrobenzenesulfonamide)-4-hydroxychalcone] | 94.8 | 107 ± 2.7 | – | – | – | – | – |
| O=C(/C=C/c1ccc(O)cc1)c1ccc(NS(=O)(=O)c2ccc(F)cc2)cc1 [Compound 4h, 4′-(4-Fluorobenzenesulfonamide)-4-hydroxychalcone] | – | 120 ± 3.2 | – | – | – | – | – |
| Cc1ccc(S(=O)(=O)Nc2ccc(C(=O)/C=C/c3ccc(O)c(O)c3)cc2)cc1 [Compound 5a, 4'-(4-Toluenesulfonamide)-3,4-dihydroxychalcone] | – | 0.21 ± 0.02 | 75.9 | 55.8 | 19.5 | 9.8 | Inhibition type (BACE1 [1]; BACE1): mixed inhibitor; Ki (BACE1 [1]; BACE1, read-out: Ki): 0.07 µM; Reversibility of inhibition (BACE1 [1]; BACE1, residual activity versus enzyme concentration): reversible inhibitor; Time dependence of inhibition (BACE1 [2]): slow binding inhibitor; also recorded: time-dependent |
| O=C(/C=C/c1ccc(O)c(O)c1)c1ccc(NS(=O)(=O)c2ccccc2)cc1 [Compound 5b, 4′-(Benzenesulfonamide)-3,4-dihydroxychalcone] | 3.78 | 4.59 ± 1.5 | 75.4 | 57.2 | 79 | 63.5 | – |
| O=C(/C=C/c1ccc(O)c(O)c1)c1ccc(NS(=O)(=O)c2ccc(O)cc2)cc1 [Compound 5c, 4′-(4-Hydroxybenzenesulfonamide)-3,4-hydroxychalcone] | 0.56 | 0.62 ± 0.03 | 57.4 | 47.6 | 24.7 | 26.6 | – |
| Nc1ccc(S(=O)(=O)Nc2ccc(C(=O)/C=C/c3ccc(O)c(O)c3)cc2)cc1 [Compound 5d, 4′-(4-Aminobenzenesulfonamide)-3,4-dihydroxychalcone] | 0.69 | 0.69 ± 0.04 | – | – | – | – | – |
| O=C(/C=C/c1ccc(O)c(O)c1)c1ccc(NS(=O)(=O)c2ccc([N+](=O)[O-])cc2)cc1 [Compound 5e, 4′-(4-Nitrobenzenesulfonamide)-3,4-dihydroxychalcone] | 92.4 | 101 ± 2.4 | – | – | – | – | – |
| O=C(/C=C/c1ccc(O)c(O)c1)c1ccc(NS(=O)(=O)c2ccc(F)cc2)cc1 [Compound 5f, 4′-(4-Fluorobenzenesulfonamide)-3,4-dihydroxychalcone] | 10.8 | 8.95 ± 1 | – | – | – | – | – |
| Cc1ccc(S(=O)(=O)Nc2ccc(C(=O)/C=C/c3ccc(O)cc3O)cc2)cc1 [Compound 6, 4'-(4-Toluenesulfonamide)-2,4-dihydroxychalcone] | 1.89 | 3.6 ± 0.3 | – | – | – | – | – |
| O=c1c(O)c(-c2ccc(O)cc2O)oc2cc(O)cc(O)c12 [Morin, reference compound] | – | – | – | – | – | – | IC50 (BACE1 [1]; BACE1): 12.3 µM |
